Structures are written as SMILES.

Experiment [1] in a line: Inhibition of IL1aplha-induced PGE2 production in bovine articular chondrocytes at 5 uM incubated for 48 hrs by ELISA relative to control. Format: functional. The note with it: Bos taurus.
The target in experiment [2] is Cannabinoid receptor 2 (Homo sapiens) (UniProt P34972). The experiment in a line: Agonist activity at human CB2 receptor assessed as reduction in […] level at 20 uM incubated for 10 mins relative to control.
The species named for experiment [3] is Cavia porcellus. The experiment in a line: Agonist activity at Dunkin Hartley guinea pig CB2 receptor assessed as inhibition of capsaicin-induced depolarization at 20 uM incubated for 10 mins relative to control.
Experiment [4] is filed under the species Cavia porcellus. Kind of experiment: Agonist activity at Dunkin Hartley guinea pig CB2 receptor assessed as reduction in […] level at 20 uM incubated for 10 mins relative to control.
The target of experiment [5] is Cannabinoid receptor 2 (Homo sapiens) (UniProt P34972). Kind of experiment: Agonist activity at human CB2 receptor assessed as inhibition of capsaicin-induced depolarization at 20 uM incubated for 10 mins relative to control.
Experiment [6] deals with Mus musculus. Kind of experiment: Reduction in LTB4 production in athymic CD-1 nude mouse xenografted with human U87 cells at 0.5 mg/mouse/day administered peritumorally for 5 days by RP-HPLC analysis relative to control. Format: functional. Also on record: scale not given: the % may be the effect or the level left.
Experiment [7] deals with Mus musculus. Kind of experiment: Reduction in anandamide production in athymic CD-1 nude mouse xenografted with human U87 cells at 0.5 mg/mouse/day administered peritumorally for 5 days by RP-HPLC with fluorimetric detection method relative to control. Format: functional. Set-up: scale not given: the % may be the effect or the level left.
The subject of another experiment is J774. The experiment in a line: Inhibition of LPS-induced PGE2 production in mouse J774 cells at 10 uM incubated for 24 hrs by enzyme immunoassay relative to control. Type of experiment: functional. The settings on record: J774, 24 h.
Another experiment has as its system Oryctolagus cuniculus. The experiment in a line: Reduction in intraocular pressure in rabbit applied topically relative to control. Type of experiment: functional. Set-up: scale not given: the % may be the effect or the level left.

Cannabinoid receptor 2 (Homo sapiens), sequence (P34972 whole entry): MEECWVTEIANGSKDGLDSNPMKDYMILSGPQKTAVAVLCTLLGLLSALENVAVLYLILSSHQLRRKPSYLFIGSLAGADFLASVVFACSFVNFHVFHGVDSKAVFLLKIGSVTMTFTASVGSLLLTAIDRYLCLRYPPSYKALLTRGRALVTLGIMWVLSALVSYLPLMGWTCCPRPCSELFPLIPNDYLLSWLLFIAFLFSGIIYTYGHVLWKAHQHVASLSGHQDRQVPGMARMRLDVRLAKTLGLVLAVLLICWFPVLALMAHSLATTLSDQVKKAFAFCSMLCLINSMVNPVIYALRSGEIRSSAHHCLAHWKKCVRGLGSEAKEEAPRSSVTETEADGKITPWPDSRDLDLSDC

Regarding `CCCCCCC(C)(C)c1cc(O)c2c(c1)OC(C)(C)[C@@H]1CCC(CO)=C[C@@H]21`, the inhibition at 5 µM in experiment [1] is > 50%.
`O=C(NCc1ccncc1)c1cnc(Nc2cccc(Cl)c2)nc1C(F)(F)F`: the Imax (in experiment [2]; in the experiment filed under Cavia porcellus [3]; in the experiment listed under Cavia porcellus [4]; in experiment [5]) was 40% each time.
For `C=C(C)[C@@H]1CCC(C)=C[C@H]1c1c(O)cc(CCCCC)cc1O` [CANNABIDIOL], the Activity was found to be 25% in the experiment on Mus musculus [6] and 30% in the experiment with Mus musculus [7].
In the case of `CCCCCc1cc(O)c2c(c1)OC(C)(C)[C@@H]1CCC(C)=C[C@@H]21` [DRONABINOL], the inhibition at 10 µM in the experiment with J774 was found to be 60%. For the same molecule, in the experiment on Oryctolagus cuniculus, the Activity was 20 - 25%.
As to `Cc1c(C(=O)c2cccc3ccccc23)c2cccc3c2n1[C@H](CN1CCOCC1)CO3` [WIN-552122], the inhibition at 5 µM in experiment [1] was > 50%.
